“And” between values parts separate entries of the source, which are not always exact repeats. Identical values can stand only once. Like-named read-outs stand apart in the source and are kept apart here.
How the values were obtained:
[1] = ABTS radical cation scavenging activity assay; set-up: key to ABTS•+-scavenging activity, TEAC: ratio of slopes, tested compound vs Trolox (Trolox = 1); conditions: n=3, 1 h, 30 °C; for ABTS•+-scavenging activity, TEAC: Trolox equivalent antioxidant capacity, mean ± SEM; for IC50: concentration for 50% reduction of ABTS radical cation
Method: Radical scavenging activity of the compounds was evaluated by the ABTS radical cation (ABTS^•+) scavenging assay showing the ability of the compounds to decolorize the ABTS^•+ solution [86] with some modifications. Trolox was used as the antioxidant standard; ascorbic acid was used as the comparison compound. All tested compounds and standards were dissolved in DMSO.
The solution of ABTS^•+ was produced by mixing 7 mM ABTS aqueous solution with 2.45 mM potassium persulfate aqueous solution in equal quantities and allowing them to react for 12–16 h at room temperature in the dark. Radical scavenging capacity of the compounds was analyzed by mixing 10 µL of compound with 240 µL of ABTS^•+ working solution in ethanol (100 µM final concentration), and after 1 h of incubation at 30 °C the decrease in absorbance was measured spectrophotometrically at 734 nm using a Bio-Rad xMark microplate UV/VIS spectrophotometer (Bio-Rad, Hercules, CA, USA). The compounds were tested in the concentration range 5 × 10^−7–1 × 10^−4 M. Ethanol blanks were run in each assay. Values were obtained from five replicates of each sample and three independent experiments.
Antioxidant activity was reported as Trolox equivalent antioxidant capacity (TEAC values), consisting of the ratio between the slopes obtained from the linear correlation for concentrations of the tested compounds and Trolox with absorbance of ABTS radical. […] The calculations were carried out using Origin 6.1 for Windows (OriginLab, Northampton, MA, USA). Results are presented as mean ± SEM calculated using GraphPad Prism version 6.05 for Windows, GraphPad Software (San Diego, CA, USA).

EeAChE PAS = target: T1, EeAChE PAS (Electrophorus electricus, UniProt O42275); experiment: biochemical; assay type: binding; conditions: 0.25 h; compound 20 μM, EeAChE 7 μM, propidium iodide 8 μM; n.a. = not active; read-out: % Displacement of Propidium from the EeAChE PAS at 20 μM
T1 construct: purchased Sigma-Aldrich type VI-S; host or cells: electric eel
T1 sequence (O42275 24-633): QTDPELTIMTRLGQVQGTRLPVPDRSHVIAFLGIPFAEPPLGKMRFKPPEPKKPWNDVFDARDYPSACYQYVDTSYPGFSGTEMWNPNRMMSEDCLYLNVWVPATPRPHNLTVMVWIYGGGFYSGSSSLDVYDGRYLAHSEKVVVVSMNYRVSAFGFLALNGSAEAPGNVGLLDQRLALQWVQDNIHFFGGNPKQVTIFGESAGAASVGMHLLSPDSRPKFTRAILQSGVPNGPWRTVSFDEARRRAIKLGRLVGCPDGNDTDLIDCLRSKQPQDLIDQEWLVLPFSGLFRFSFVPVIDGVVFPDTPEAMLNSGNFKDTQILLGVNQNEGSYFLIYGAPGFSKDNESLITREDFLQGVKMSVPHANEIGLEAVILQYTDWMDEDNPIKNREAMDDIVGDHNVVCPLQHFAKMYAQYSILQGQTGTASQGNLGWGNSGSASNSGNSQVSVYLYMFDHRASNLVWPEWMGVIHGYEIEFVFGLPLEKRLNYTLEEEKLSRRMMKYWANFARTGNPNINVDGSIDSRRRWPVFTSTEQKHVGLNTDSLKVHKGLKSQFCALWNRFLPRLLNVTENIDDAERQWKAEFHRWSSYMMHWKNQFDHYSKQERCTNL
Method: Electrophorus electricus (EeAChE) (electric eel, type VI-S, lyophilized powder, Sigma-Aldrich, St. Louis, MO, USA) was used owing to its high degree of purification, high activity, and lower cost than human AChE (hAChE). […] To determine the degree of displacement (% displacement) of propidium from the PAS of AChE, EeAChE (final concentration, 7 μM) was incubated with the test compound at a concentration of 20 μM in 1 mM Tris-HCl buffer pH 8.0, 25 °C, for 15 min. Then, propidium iodide solution (final concentration, 8 μM) was added, the samples were incubated for 15 min, and the fluorescence spectrum (530 nm (excitation) and 600 nm (emission)) was taken. […] The blank contained propidium iodide of the same concentration in 1 mM Tris-HCl buffer, pH 8.0 at 25 °C. The measurements were carried out in triplicate on a FLUOStar Optima microplate reader (LabTech, Ortenberg, Germany), and the results were calculated by the following formula:% Displacement = 100 − (IFAChE + Propidium + inhibitor / IFAChE + Propidium) × 100 (1) where IFAChE + Propidium is the fluorescence intensity of the propidium associated with AChE in the absence of the test compound (taken as 100%), and IFAChE + Propidium + inhibitor is the fluorescence intensity of the propidium associated with AChE in the presence of the test compound.

[2] = Ferric reducing antioxidant power (FRAP) assay; conditions: Trolox equivalents; n=3, 1 h, 37 °C; mean ± SEM
Method: The FRAP (Ferric Reducing Antioxidant Power) assay measures the ability of antioxidants to reduce the ferric 2,4,6-tripyridyl-s-triazine complex [Fe(TPTZ)2]^3+ to the intensely blue-colored ferrous complex [Fe(TPTZ)2]^2+ with an absorption maximum at λ = 593 nm. The reducing ability of a compound is an indicator of its potential antioxidant activity.
The ferric reducing ability of the compounds was determined by a previously described method as a microplate-adapted version described in [42]. 2,4,6-tris(pyridin-2-yl)-1,3,5-triazine (TPTZ), FeCl3·6H2O, Trolox, ascorbic acid and DMSO were obtained from Sigma-Aldrich Chemical Co (St. Louis, MO, USA). The FRAP reagent was prepared by mixing acetate buffer (0.3 M, pH 3.6), TPTZ (10 mM in 40 mM HCl) and FeCl3·6H2O (20 mM in distilled water) in a ratio of 10:1:1 immediately before use. Compounds were dissolved in DMSO and tested in the concentration range of 1×10^−6–1×10^−4 M. The solvent content in the reaction mixture was 4% (v/v). The test compounds (10 µL) were added to the FRAP reagent solution (240 µL) and mixed thoroughly. The reaction was carried out at 37 °C in the dark, the incubation time was 1 h. The absorbance at 600 nm was monitored spectrophotometrically by a FLUOStar OPTIMA microplate reader (BMG Labtech, Germany) at 37 °C. Trolox was used as a standard antioxidant, ascorbic acid as a reference compound. Values were obtained from four replicates of each sample and three independent experiments.
The ferric reducing ability of compounds was expressed as TE units (antioxidant activity in Trolox equivalent) with the values calculated as the ratio of the concentrations of Trolox and the test compound resulting in the same effect.

equine serum BChE = target: T2, equine serum BChE (Equus caballus, UniProt P81908); experiment: biochemical; conditions: mean ± SEM, n = 3; for IC50: equine serum BChE, 5 min incubation, 25 °C, pH 7.5, read-out: Inhibitory activity against BChE, IC50; for inhibition at 20 µM: read-out: Inhibitory activity against BChE, % inhibition at 20 μM, compound 20 μM, n.a. = not active
T2 construct: purchased Sigma-Aldrich; host or cells: equine serum
T2 sequence (P81908 whole entry): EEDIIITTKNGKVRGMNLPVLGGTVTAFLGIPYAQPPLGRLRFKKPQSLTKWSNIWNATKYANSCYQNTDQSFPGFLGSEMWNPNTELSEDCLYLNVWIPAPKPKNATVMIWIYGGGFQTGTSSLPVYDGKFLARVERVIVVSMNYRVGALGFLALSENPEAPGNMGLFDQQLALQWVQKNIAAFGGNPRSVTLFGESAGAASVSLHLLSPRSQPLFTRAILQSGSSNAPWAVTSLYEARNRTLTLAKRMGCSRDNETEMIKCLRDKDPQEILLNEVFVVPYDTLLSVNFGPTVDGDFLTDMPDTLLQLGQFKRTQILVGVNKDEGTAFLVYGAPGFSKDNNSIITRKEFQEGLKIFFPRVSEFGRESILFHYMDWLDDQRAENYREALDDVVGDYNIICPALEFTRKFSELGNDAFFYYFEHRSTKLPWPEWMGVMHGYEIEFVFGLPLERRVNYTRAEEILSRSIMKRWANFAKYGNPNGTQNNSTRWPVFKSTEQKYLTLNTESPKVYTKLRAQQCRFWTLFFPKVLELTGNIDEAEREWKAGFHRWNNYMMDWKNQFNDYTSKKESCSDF
Method: (§1) The assay solution consisted of 0.1 M K/Na phosphate buffer pH 7.5, 25 °C, 0.33 mM DTNB, 0.02 unit/mL AChE or BChE, and 1 mM substrate (ATCh or BTCh, respectively). Reagent blanks consisted of reaction mixtures without substrates.
(§2) Each experiment was performed in triplicate.

Human erythrocyte AChE = target: T3, Human erythrocyte AChE (Homo sapiens, UniProt P22303); experiment: biochemical; conditions: for IC50: human erythrocyte AChE, 5 min incubation, 25 °C, pH 7.5, read-out: Inhibitory activity against AChE, IC50; for inhibition at 20 µM: read-out: Inhibitory activity against AChE, % inhibition at 20 μM
T3 construct: purchased Sigma-Aldrich; host or cells: human erythrocytes
T3 sequence (P22303 32-617 isoform P22303-2 limits assumed): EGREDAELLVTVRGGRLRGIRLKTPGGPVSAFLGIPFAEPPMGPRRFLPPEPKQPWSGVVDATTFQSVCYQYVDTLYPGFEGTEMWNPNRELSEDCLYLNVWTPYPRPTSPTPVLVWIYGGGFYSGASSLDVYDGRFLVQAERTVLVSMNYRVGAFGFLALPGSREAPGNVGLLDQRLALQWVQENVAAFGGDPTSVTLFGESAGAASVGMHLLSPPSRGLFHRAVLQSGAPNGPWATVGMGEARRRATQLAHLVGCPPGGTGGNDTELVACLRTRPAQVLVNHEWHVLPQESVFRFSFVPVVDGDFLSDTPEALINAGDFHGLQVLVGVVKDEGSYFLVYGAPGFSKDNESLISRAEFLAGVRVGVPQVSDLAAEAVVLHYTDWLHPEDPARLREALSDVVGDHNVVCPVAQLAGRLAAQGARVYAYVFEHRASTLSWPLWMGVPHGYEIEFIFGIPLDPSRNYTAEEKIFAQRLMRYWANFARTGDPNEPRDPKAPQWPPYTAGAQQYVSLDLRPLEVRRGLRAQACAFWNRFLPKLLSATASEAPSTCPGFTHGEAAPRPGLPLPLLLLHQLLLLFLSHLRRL
Method: as §1, §2

porcine liver CES = experiment: CES inhibition, 4-nitrophenyl acetate hydrolysis; conditions: compound 20 μM; mean ± SEM, n = 3; n.a. = not active
Method: Final enzyme and substrate (4-nitrophenyl acetate) concentrations were 0.02 unit/mL and 1 mM, respectively. Assays were carried out with a blank containing all constituents except porcine CES to assess non-enzymatic hydrolysis. Measurements were performed with a FLUOStar Optima microplate reader (BMG Labtech, Ortenberg, Germany). Compounds were dissolved in DMSO; the incubation mixture contained 2% (v/v) solvent. The primary evaluation of the inhibitory activity of the compounds was performed by determining the degree of the enzyme inhibition at a compound concentration of 20 µM. For this, a sample of the corresponding enzyme was incubated with the test compound for 5 min; then the enzyme residual activity was determined. Each experiment was performed in triplicate. […] Substrate was then added and residual enzyme activity relative to an inhibitor-free control was measured using a FLUOStar Optima microplate reader.

[3] = Metal-chelating properties by UV-Vis spectrometry in acetonitrile; assay type: physicochemical; conditions: compound 40 µM, metal 40 µM, 25 °C, red shift of absorbance
Method: The complexing studies were made in acetonitrile at 25 °C using a UV–vis spectrophotometer Shimadzu UV-2600 (Shimadzu Corporation, Kyoto, Japan) with wavelength ranging from 190 to 600 nm. Solutions (200 µM in acetonitrile) of the following metals compounds were prepared in volumetric flasks: FeCl2·4H2O (99%, Acros Organics by Thermo Fisher Scientific (Kandel, Germany)), CuCl2 (98%, Alfa Aesar by Thermo Fisher Scientific (Kandel, Germany)), or Zn(NO3)2·6H2O (98%, Alfa Aesar by Thermo Fisher Scientific (Kandel, Germany). Solutions of the test compounds were also prepared in acetonitrile at 400 µM concentrations. To a mixture of 0.5 mL test compound solution (40 μM final concentration) and 3.5 mL acetonitrile, 1 mL of the metal solution (CuCl2, FeCl2·4H2O, or Zn(NO3)2·6H2O; 40 µM final concentration) was added. The solution was incubated at 25 °C for 30 min and then the absorption spectra were recorded at 25 °C in a 1 cm quartz cell. The control was prepared by mixing 0.5 mL tested compound solution and 4.5 mL acetonitrile.

[4] = compound 20 μM, mean ± SEM, n = 3, n.a. = not active

SMILES	ABTS•+-scavenging activity, TEAC [1]	IC50 [1] [nM]	inhibition at 20 µM (EeAChE PAS) [%]	FRAP (Fe3+-reducing activity), TE [2]	IC50 (equine serum BChE)	IC50 (Human erythrocyte AChE; mean ± SEM, n = 3)	Inhibitory activity against CES, % inhibition at 20 μM (porcine liver CES) [%]	Metal-chelating ability for Cu2+, Fe2+ and Zn2+ [3]	inhibition at 20 µM (equine serum BChE) [%]	inhibition at 20 µM (Human erythrocyte AChE; [4]) [%]	inhibition at 20 µM (Human erythrocyte AChE) [%]
C/C(NCCCCCCCCNc1c2c(nc3ccccc13)CCCC2)=C(/N=N/c1ccc(C)cc1)C(=O)c1ccccc1 [7c]	0.92 ± 0.03	21800 ± 1600	14.1 ± 1.1	0.58 ± 0.03	74.5 ± 6 nM	250 nM and 249 nM	23.4 ± 2.2	–	–	–	–
C/C(NCCCCNc1c2c(nc3ccccc13)CCCC2)=C(/N=N/c1ccc(C)cc1)C(=O)c1ccccc1 [7a]	0.90 ± 0.04	22300 ± 1900	11.9 ± 0.8	0.43 ± 0.04	36 nM and 35.9 nM	889 ± 7 nM	31.2 ± 2.9	metal-chelating ability	–	–	–
CC(=O)C(/N=N/c1ccc(C)cc1)=C(\C)NCCCCCCCCNc1c2c(nc3ccccc13)CCCC2 [6c]	0.80 ± 0.03	27500 ± 1600	17.8 ± 1.4	0.49 ± 0.05	54 nM and 54.3 nM	270 nM and 272 nM	30.1 ± 1.2	–	–	–	–
C/C(NCCCCNc1c2c(nc3ccccc13)CCCC2)=C(/N=N/c1ccc(C)cc1)C(=O)C(F)(F)F [8a]	1.13 ± 0.05	17700 ± 1300	13.7 ± 1.2	0.06 ± 0.01	246 ± 16 nM	1690 ± 50 nM	28.6 ± 4.0	metal-chelating ability	–	–	–
CC(=O)C(/N=N/c1ccc(C)cc1)=C(\C)NCCCCNc1c2c(nc3ccccc13)CCCC2 [6a]	1.00 ± 0.03	19500 ± 1100	15.6 ± 1.2	0.37 ± 0.06	139 ± 17 nM	1390 ± 40 nM	23.3 ± 0.4	metal-chelating ability	–	–	–
C/C(NCCCCCCNc1c2c(nc3ccccc13)CCCC2)=C(/N=N/c1ccc(C)cc1)C(=O)c1ccccc1 [7b]	0.91 ± 0.03	21800 ± 1600	15.5 ± 1.3	0.51 ± 0.06	47 ± 3.8 nM	380 ± 3 nM	33.2 ± 1.7	–	–	–	–
CCCCCCN/C(C)=C(\N=N\c1ccc(C)cc1)C(=O)C(F)(F)F [2c, (3Z)-4-(Hexylamino)-3-[(E)-(4-methylphenyl)diazenyl]-1,1,1-trifluoropent-3-en-2-one]	1.00 ± 0.04	19900 ± 1400	–	not active	–	–	–	–	35.3 ± 2.7	14.7 ± 3.2	–
C/C(NCCCCCCNc1c2c(nc3ccccc13)CCCC2)=C(/N=N/c1ccc(C)cc1)C(=O)C(F)(F)F [8b]	1.00 ± 0.04	17900 ± 600	14.4 ± 1.3	0.11 ± 0.03	125 ± 6 nM	280 nM and 276 nM	19.9 ± 2.9	–	–	–	–
CCCCCCN/C(C)=C(\N=N\c1ccc(C)cc1)C(C)=O [2a, (3Z)-4-(Hexylamino)-3-[(E)-(4-methylphenyl)diazenyl]pent-3-en-2-one]	0.94 ± 0.03	20300 ± 1600	–	0.57 ± 0.02	18100 ± 800 nM	–	–	–	–	–	22.9 ± 1.2
C/C(NCCCCCCCCNc1c2c(nc3ccccc13)CCCC2)=C(/N=N/c1ccc(C)cc1)C(=O)C(F)(F)F [8c]	0.95 ± 0.03	19400 ± 1300	16.2 ± 1.4	0.12 ± 0.01	98.5 ± 1.3 nM	240 nM and 241 nM	12.2 ± 1.7	–	–	–	–
Cc1c(C)c2c(c(C)c1O)CCC(C)(C(=O)O)O2 (centres unmarked) [Trolox, 6-hydroxy-2,5,7,8-tetramethylchroman-2-carboxylic acid, reference compound]	1.0	19700 ± 800	–	1.0	–	–	–	–	–	–	–
CCCCCCN/C(C)=C(\N=Nc1ccc(C)cc1)C(=O)c1ccccc1 [2b, (3Z)-3-(Hexylamino)-2-[(4-methylphenyl)diazenyl]-1-phenylbut-2-en-1-one]	0.98 ± 0.03	18900 ± 1200	–	0.52 ± 0.02	–	–	–	–	25 ± 2	12.5 ± 0.6	–
O=C1O[C@H]([C@@H](O)CO)C(O)=C1O [Ascorbic acid, ascorbic acid, reference compound]	0.96 ± 0.02	22600 ± 1300	–	1.23 ± 0.11	–	–	–	–	–	–	–
